The numbers were not newly measured in patent publication US20150209399A1, “Methods For Enhacement Of Dehydroepiandrosterone Using Green Coffee Bean Extract” (Applied Food Sciences, Inc., priority 2013, published 2015), which cites them from elsewhere.

The conditions of data set [1]: human, in vivo.
For data set [2] the following is noted: 300 mg DHEA per day orally, second week; baseline 316.2.
For data set [3], the system named is human coxsackievirus B4 strain.
The subject of the next data set is platelet aggregation. To be noted: four of the five test subjects who received DHEA; second week.

For the molecule chlorogenic acids, in data set [1], the half-life entry is reported as “less than 12 hours”.

Consider `C[C@]12CCC(O)CC1=CC[C@@H]1[C@@H]2CC[C@]2(C)C(=O)CC[C@@H]12` (some centres unmarked) [DHEA, 3-hydroxyandrost-5-en-17-one], for which the “mean serum DHEA-S level, DHEA group” value in data set [2] is 1451.9 ± 56.7 µg/dL. Further, the “mortality of infected animals treated with DHEA” value in data set [3] (100,000 plaque forming units/animal, about 90% mortality in infected animals) is recorded as 37%. In addition, the “elevation in the number of antibody forming cells” value in data set [3] (within the animal) is reported as 80%. Besides, the “rate of platelet aggregation” value in the data set on platelet aggregation was “slower rate of aggregation”.
